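Cells were grown in 96-well plates and exposed to each compound for 48 hours at five concentrations; endpoints were interpolated linearly between bracketing concentrations, or set to the highest concentration if not reached. TGI: concentration producing complete growth inhibition.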
Key:
Assay in all cases: NCI tumour cell line growth inhibition, 48 h
A498 renal = test system: A498 renal
A549 NSCLC = test system: A549 NSCLC
CAKI-1 renal = test system: CAKI-1 renal
CCRF-CEM leukemia = test system: CCRF-CEM leukemia
COLO 205 colon = test system: COLO 205 colon
DLD-1 colon = test system: DLD-1 colon
DMS 273 small cell lung = test system: DMS 273 small cell lung
EKVX NSCLC = test system: EKVX NSCLC
HCC-2998 colon = test system: HCC-2998 colon
HCT-116 colon = test system: HCT-116 colon
HCT-15 colon = test system: HCT-15 colon
HOP-18 NSCLC = test system: HOP-18 NSCLC
HOP-62 NSCLC = test system: HOP-62 NSCLC
HOP-92 NSCLC = test system: HOP-92 NSCLC
HT29 colon = test system: HT29 colon
IGROV1 ovarian = test system: IGROV1 ovarian
K-562 leukemia = test system: K-562 leukemia
KM12 colon = test system: KM12 colon
LOX IMVI melanoma = test system: LOX IMVI melanoma
M19-MEL melanoma = test system: M19-MEL melanoma
MALME-3M melanoma = test system: MALME-3M melanoma
MCF7 breast = test system: MCF7 breast
MOLT-4 leukemia = test system: MOLT-4 leukemia
NCI-H226 lung = test system: NCI-H226 lung
NCI-H23 lung = test system: NCI-H23 lung
NCI-H460 lung = test system: NCI-H460 lung
NCI-H522 lung = test system: NCI-H522 lung
NCI/ADR-RES ovarian = test system: NCI/ADR-RES ovarian
OVCAR-3 ovarian = test system: OVCAR-3 ovarian
OVCAR-4 ovarian = test system: OVCAR-4 ovarian
OVCAR-5 ovarian = test system: OVCAR-5 ovarian
OVCAR-8 ovarian = test system: OVCAR-8 ovarian
P388 leukemia = test system: P388 leukemia
P388/ADR leukemia = test system: P388/ADR leukemia
RPMI-8226 leukemia = test system: RPMI-8226 leukemia
RXF 393 renal = test system: RXF 393 renal
SF-268 CNS = test system: SF-268 CNS
SF-295 CNS = test system: SF-295 CNS
SF-539 CNS = test system: SF-539 CNS
SK-MEL-2 melanoma = test system: SK-MEL-2 melanoma
SK-MEL-28 melanoma = test system: SK-MEL-28 melanoma
SK-MEL-5 melanoma = test system: SK-MEL-5 melanoma
SK-OV-3 ovarian = test system: SK-OV-3 ovarian
SN12C renal = test system: SN12C renal
SN12K1 renal = test system: SN12K1 renal
SNB-19 CNS = test system: SNB-19 CNS
SNB-75 CNS = test system: SNB-75 CNS
SNB-78 CNS = test system: SNB-78 CNS
SW-620 colon = test system: SW-620 colon
U251 CNS = test system: U251 CNS
UACC-257 melanoma = test system: UACC-257 melanoma
UACC-62 melanoma = test system: UACC-62 melanoma
UO-31 renal = test system: UO-31 renal
XF 498 CNS = test system: XF 498 CNS
786-0 renal = test system: 786-0 renal
ACHN renal = test system: ACHN renal
DMS 114 small cell lung = test system: DMS 114 small cell lung
HL-60(TB) leukemia = test system: HL-60(TB) leukemia
KM20L2 colon = test system: KM20L2 colon
LXFL 529 NSCLC = test system: LXFL 529 NSCLC
M14 melanoma = test system: M14 melanoma
RXF-631 renal = test system: RXF-631 renal
SR leukemia = test system: SR leukemia
TK-10 renal = test system: TK-10 renal

`CC1=CC2=C(C=O)C(=O)[C@](C)(O)[C@@H](O)C2=CO1` showed a TGI (A498 renal) of 73.5 µM, a TGI (A549 NSCLC) greater than 90.8 µM and a TGI (CAKI-1 renal) greater than 100 µM. The TGI (CCRF-CEM leukemia) was 59.3 µM, the TGI (COLO 205 colon) was greater than 82 µM and the TGI (DLD-1 colon) was greater than 100 µM. The TGI (DMS 273 small cell lung) was greater than 90.2 µM, the TGI (EKVX NSCLC) was greater than 100 µM and the TGI (HCC-2998 colon) was greater than 61.5 µM. For the same compound, the TGI (HCT-116 colon) was greater than 59.9 µM, the TGI (HCT-15 colon) was greater than 100 µM and the TGI (HOP-18 NSCLC) was greater than 92.7 µM. For the same compound, the TGI (HOP-62 NSCLC) was 69 µM, the TGI (HOP-92 NSCLC) was greater than 100 µM and the TGI (HT29 colon) was greater than 100 µM. The TGI (IGROV1 ovarian) was greater than 100 µM, the TGI (K-562 leukemia) was greater than 90.9 µM and the TGI (KM12 colon) was greater than 100 µM. For the same compound, the TGI (LOX IMVI melanoma) was greater than 74.3 µM, the TGI (M19-MEL melanoma) was greater than 73.5 µM and the TGI (MALME-3M melanoma) was greater than 70.2 µM. For the same compound, the TGI (MCF7 breast) was greater than 100 µM, the TGI (MOLT-4 leukemia) was 41.3 µM and the TGI (NCI-H226 lung) was 65.4 µM. The TGI (NCI-H23 lung) was greater than 100 µM, the TGI (NCI-H460 lung) was greater than 100 µM and the TGI (NCI-H522 lung) was 38.5 µM. The TGI (NCI/ADR-RES ovarian) was greater than 100 µM, the TGI (OVCAR-3 ovarian) was 5.58 µM and the TGI (OVCAR-4 ovarian) was greater than 100 µM. The TGI (OVCAR-5 ovarian) was greater than 100 µM, the TGI (OVCAR-8 ovarian) was greater than 100 µM and the TGI (P388 leukemia) was 35.5 µM. It also gave a TGI (P388/ADR leukemia) of 33.8 µM, a TGI (RPMI-8226 leukemia) of 47.1 µM and a TGI (RXF 393 renal) of 52.3 µM. The TGI (SF-268 CNS) was greater than 69.4 µM, the TGI (SF-295 CNS) was greater than 100 µM and the TGI (SF-539 CNS) was 97.5 µM. For the same compound, the TGI (SK-MEL-2 melanoma) was 62.2 µM, the TGI (SK-MEL-28 melanoma) was greater than 78.1 µM and the TGI (SK-MEL-5 melanoma) was 68.1 µM. It also gave a TGI (SK-OV-3 ovarian) of 76.3 µM, a TGI (SN12C renal) greater than 100 µM and a TGI (SN12K1 renal) greater than 100 µM. The TGI (SNB-19 CNS) was 5.5 µM, the TGI (SNB-75 CNS) was greater than 100 µM and the TGI (SNB-78 CNS) was greater than 100 µM. It also gave a TGI (SW-620 colon) greater than 77.6 µM, a TGI (U251 CNS) greater than 76.8 µM and a TGI (UACC-257 melanoma) greater than 100 µM. The TGI (UACC-62 melanoma) was 71.5 µM, the TGI (UO-31 renal) was 43.8 µM and the TGI (XF 498 CNS) was greater than 100 µM.

In the case of `CC(=O)CC(=O)Nc1ccc(OS(N)(=O)=O)cc1`, the TGI (786-0 renal) is reported as greater than 100 µM, the TGI (A498 renal) is reported as greater than 100 µM and the TGI (A549 NSCLC) is reported as greater than 100 µM. It also gave a TGI (ACHN renal) greater than 100 µM, a TGI (CAKI-1 renal) greater than 100 µM and a TGI (CCRF-CEM leukemia) greater than 100 µM. The TGI (COLO 205 colon) was greater than 100 µM, the TGI (DLD-1 colon) was greater than 100 µM and the TGI (DMS 114 small cell lung) was greater than 100 µM. It also gave a TGI (DMS 273 small cell lung) greater than 100 µM, a TGI (EKVX NSCLC) greater than 100 µM and a TGI (HCC-2998 colon) greater than 100 µM. The TGI (HCT-116 colon) was greater than 100 µM, the TGI (HCT-15 colon) was greater than 100 µM and the TGI (HL-60(TB) leukemia) was greater than 100 µM. It also gave a TGI (HOP-18 NSCLC) greater than 100 µM, a TGI (HOP-62 NSCLC) greater than 100 µM and a TGI (HOP-92 NSCLC) greater than 100 µM. The TGI (HT29 colon) was greater than 100 µM, the TGI (IGROV1 ovarian) was greater than 100 µM and the TGI (K-562 leukemia) was greater than 100 µM. The TGI (KM12 colon) was greater than 100 µM, the TGI (KM20L2 colon) was greater than 100 µM and the TGI (LXFL 529 NSCLC) was greater than 100 µM. The TGI (M14 melanoma) was greater than 100 µM, the TGI (M19-MEL melanoma) was greater than 100 µM and the TGI (MALME-3M melanoma) was greater than 100 µM. For the same compound, the TGI (MOLT-4 leukemia) was greater than 100 µM, the TGI (NCI-H226 lung) was greater than 100 µM and the TGI (NCI-H23 lung) was greater than 100 µM. It also gave a TGI (NCI-H460 lung) greater than 100 µM, a TGI (NCI-H522 lung) greater than 100 µM and a TGI (OVCAR-3 ovarian) greater than 100 µM. For the same compound, the TGI (OVCAR-4 ovarian) was greater than 100 µM, the TGI (OVCAR-5 ovarian) was greater than 100 µM and the TGI (OVCAR-8 ovarian) was greater than 100 µM. It also gave a TGI (RPMI-8226 leukemia) greater than 100 µM, a TGI (RXF 393 renal) greater than 100 µM and a TGI (RXF-631 renal) greater than 100 µM. The TGI (SF-268 CNS) was greater than 100 µM, the TGI (SF-295 CNS) was greater than 100 µM and the TGI (SF-539 CNS) was greater than 100 µM. It also gave a TGI (SK-MEL-2 melanoma) greater than 100 µM, a TGI (SK-MEL-28 melanoma) greater than 100 µM and a TGI (SK-MEL-5 melanoma) greater than 100 µM. For the same compound, the TGI (SK-OV-3 ovarian) was greater than 100 µM, the TGI (SN12C renal) was greater than 100 µM and the TGI (SNB-19 CNS) was greater than 100 µM. It also gave a TGI (SNB-75 CNS) greater than 100 µM, a TGI (SNB-78 CNS) greater than 100 µM and a TGI (SR leukemia) greater than 100 µM. For the same compound, the TGI (SW-620 colon) was greater than 100 µM, the TGI (TK-10 renal) was greater than 100 µM and the TGI (U251 CNS) was greater than 100 µM. For the same compound, the TGI (UACC-257 melanoma) was greater than 100 µM, the TGI (UACC-62 melanoma) was greater than 100 µM and the TGI (UO-31 renal) was greater than 100 µM. For the same compound, the TGI (XF 498 CNS) was greater than 100 µM.

`O=C(OCc1ccccc1)N1N=NC2C3CC(OCc4ccccc4)(OCc4ccccc4)C(O3)C21` (stereo not drawn) showed a TGI (786-0 renal) greater than 100 µM, a TGI (A498 renal) greater than 100 µM and a TGI (A549 NSCLC) greater than 100 µM. It also gave a TGI (ACHN renal) greater than 100 µM, a TGI (CAKI-1 renal) greater than 100 µM and a TGI (CCRF-CEM leukemia) greater than 100 µM. The TGI (COLO 205 colon) was 63 µM, the TGI (DLD-1 colon) was greater than 100 µM and the TGI (DMS 114 small cell lung) was 53.1 µM. The TGI (DMS 273 small cell lung) was 94.9 µM, the TGI (HCC-2998 colon) was 83.2 µM and the TGI (HCT-15 colon) was greater than 100 µM. For the same compound, the TGI (HL-60(TB) leukemia) was 32.6 µM, the TGI (HOP-18 NSCLC) was 94 µM and the TGI (HOP-62 NSCLC) was greater than 100 µM. The TGI (HOP-92 NSCLC) was 43.9 µM, the TGI (HT29 colon) was greater than 100 µM and the TGI (IGROV1 ovarian) was greater than 100 µM. The TGI (K-562 leukemia) was 73.6 µM, the TGI (KM12 colon) was greater than 100 µM and the TGI (KM20L2 colon) was greater than 100 µM. The TGI (LOX IMVI melanoma) was 42.8 µM, the TGI (LXFL 529 NSCLC) was greater than 100 µM and the TGI (M14 melanoma) was greater than 100 µM. It also gave a TGI (M19-MEL melanoma) of 77.6 µM, a TGI (MALME-3M melanoma) of 43.1 µM and a TGI (MOLT-4 leukemia) of 60.7 µM. The TGI (NCI-H226 lung) was 41.8 µM, the TGI (NCI-H23 lung) was 38.9 µM and the TGI (NCI-H460 lung) was greater than 100 µM. It also gave a TGI (OVCAR-3 ovarian) of 59.6 µM, a TGI (OVCAR-4 ovarian) greater than 100 µM and a TGI (OVCAR-5 ovarian) of 70.4 µM. For the same compound, the TGI (RPMI-8226 leukemia) was greater than 100 µM, the TGI (RXF 393 renal) was 35.6 µM and the TGI (RXF-631 renal) was greater than 100 µM. The TGI (SF-268 CNS) was 87.7 µM, the TGI (SF-295 CNS) was greater than 100 µM and the TGI (SF-539 CNS) was greater than 100 µM. The TGI (SK-MEL-2 melanoma) was 33 µM, the TGI (SK-MEL-28 melanoma) was 55.1 µM and the TGI (SK-OV-3 ovarian) was greater than 100 µM. For the same compound, the TGI (SN12C renal) was greater than 100 µM, the TGI (SNB-75 CNS) was 82.4 µM and the TGI (SNB-78 CNS) was greater than 100 µM. The TGI (SW-620 colon) was 80.5 µM, the TGI (U251 CNS) was greater than 100 µM and the TGI (UACC-257 melanoma) was 41.4 µM. For the same compound, the TGI (UACC-62 melanoma) was 61.4 µM, the TGI (UO-31 renal) was 28.4 µM and the TGI (XF 498 CNS) was 53.4 µM.
